Results: patent US20250221957A1, “PS[…] AND THEIR USE FOR TREATING […] AND NE[…] DISORDERS” (Transcend Therapeutics, Inc., priority 2021, published 2025)
Like-named read-outs stand apart in the source and are kept apart here. Marks after values point to notes of the source that are not given here.

Legend:
[1] = test system: patients with a diagnosis of PTSD or MDD; healthy subjects; assay: Methylone case series (Example 4, Cohorts 1 and 2): CGI-S/CGI-I and safety events; assay type: in vivo, human
Procedure: CGI-S scale was also evaluated in a subset of patients from Cohort 2 post-treatment. Cohort 2 was evaluated for any observed or reported safety events following a single dosing session.
Clinical Global Impressions (CGI) scale includes 2 components: CGI-S(“severity”) and CGI-I (“improvement”).
• 1=Normal—not at all ill, symptoms of disorder not present past seven days • 2=Borderline mentally ill-subtle or suspected pathology • 3=Mildly ill-clearly established symptoms with minimal, if any, distress or difficulty in social and occupational function • 4=Moderately ill-overt symptoms causing noticeable, but modest, functional impairment or distress; symptom level may warrant medication • 5=Markedly ill-intrusive symptoms that distinctly impair social/occupational function or cause intrusive levels of distress • 6=Severely ill-disruptive pathology, behavior and function are frequently influenced by symptoms, may require assistance from others • 7=Among the most extremely ill patients-pathology drastically interferes in many life functions; may be hospitalized
Only sessions that included methylone dosing were counted as dosing sessions.
Single sessions occurred for 8 of the 28 cases with no booster in two of these cases. In the remainder of the cases, multiple sessions occurred, and booster doses were used in all or some of the remaining patients ([…]) with multiple booster doses used in some or all of the sessions in 15 patients.

[2] = test system: patients with a primary diagnosis of PTSD; assay: Methylone PTSD case series with long-term follow-up (Example 5): CGI-I and safety; assay type: in vivo, human
Source text: The patients were not given structured psychotherapy in conjunction with methylone treatment, which differs from recent studies of MDMA that emphasize the importance of a manualized psychedelic-assisted psychotherapy model.
No protectedhealth information was disclosed, and no consent was obtained from patients for use of their archival data. Case narratives were systematically compiled from data collected as part of routine clinical work. Diagnoses were confirmed by an experienced clinician using semi-structured interviews. Baseline symptom severity was evaluated using the Clinical Global Impressions Scale-Severity ([…]). Symptom improvement was evaluated using the Clinical Global Impressions Scale-Improvement (CGI-I) following dosing. […] Because these case narratives were examined retrospectively from routine clinical care records, and not gathered prospectively in a research study, more specific validated rating scales for assessing PTSD symptoms were not available. Additionally, follow-up varied, with the length of follow-up ranging from one week (Case 2) to 15 years (Case 16).
Dosing summary: Methylone was administered orally. Other medications were not changed during methylone treatment. […] In several cases, treatment was continued and, in some cases, the dose was further escalated in later sessions (see Table 5). Booster doses were included for 19 patients in one or more of the sessions. Starting doses were between 100 and 270 mg, and these as well as booster doses were selected based on clinical judgement.

[3] = molecular target: dopamine (DA) transporter (Homo sapiens, UniProt Q01959); assay: Radioligand binding, [3H] WIN35428
[4] = molecular target: norepinephrine (NE) transporter (Homo sapiens, UniProt P23975); assay: Radioligand binding, [3H] nisoxetine
[5] = test system: mice; assay: Fear extinction paradigm, mouse model of PTSD; assay type: in vivo
Source text: (FIG. 9A) Schematic of experimental design. A single CS-US (tone-shock) pairing on day 1 was followed by 6 CS presentations in a novel context (context B). […] On day 3, the time spent freezing to the CS was quantified. […] (FIG. 9C) No locomotor changes were observed on day 3 (t(26)=1.073, p>0.05). Data are mean +/− SEM.
FIGS. 10A-10B: MBDB improves fear extinction in a mouse model of PTSD. A single CS-US (tone-shock) pairing on day 1 was followed by 6 conditioned stimulus (CS) presentations in a novel context (context B). MBDB or saline vehicle was injected 30 min prior to extinction training on day 2. The time spent freezing to the CS was quantified on […]. […] Data are mean +/− SEM. N=10 for MBDB group (5 mg/kg, IP) and N=16 for saline control group. **p<0.01 vs. vehicle control group.
Effective PTSD treatments facilitate the disassociation between a traumatic memory and the patient's fear response, making cues for the traumatic memory evoke less of a fear response. This is modeled in the mouse fear extinction paradigm (see FIG. 9A) which takes place over 3 days. On day 1 (fear conditioning), mice are trained to acquire a “traumatic memory,” namely associating the conditioned stimulus (CS, tone) to the unconditioned stimulus (US, foot shock). On day 2 (extinction training), they are trained to forget the traumatic memory association by presenting the CS 6 times (with no US) in a novel environment. On day 3 (extinction recall), the mice are “asked” if that tone (CS) still elicits a fearful response, as measured by the time spent freezing when the tone is presented. Less time freezing means better extinction recall. Drugs that improve extinction recall reduce freezing time on day 3, and, therefore, show potential as a PTSD treatment.

[6] = test system: 168 GPCRs; assay: DiscoverX PathHunter β-arrestin GPCR screen, agonist and antagonist mode; assay type: cell-based; settings: 1 and 10 micromolar
Procedure: For agonist determination, cells were incubated with sample to induce response. […] Vehicle concentration was 1%.
Vehicle concentration was 1%.

[7] = molecular target: T1, serotonin transporter (SERT) (Rattus norvegicus, UniProt P31652); assay: [3H]5HT uptake saturation in rat brain synaptosomes with or without methylone; assay type: biochemical
T1 construct: from tissue; host or cells: rat brain synaptosomes

[8] = molecular target: vesicular monoamine transporter 2 (VMAT2) (Homo sapiens, UniProt Q05940); settings: cited from earlier work
[9] = molecular target: serotonin transporter (Homo sapiens, UniProt P31645); settings: cited from earlier work
[10] = cited from earlier work
[11] = test system: drug users / humans; settings: methylone 50 mg in humans (Poyatos 2022); cited from earlier work
[12] = rats, intraperitoneal administration

T1 sequence (P31652 whole entry): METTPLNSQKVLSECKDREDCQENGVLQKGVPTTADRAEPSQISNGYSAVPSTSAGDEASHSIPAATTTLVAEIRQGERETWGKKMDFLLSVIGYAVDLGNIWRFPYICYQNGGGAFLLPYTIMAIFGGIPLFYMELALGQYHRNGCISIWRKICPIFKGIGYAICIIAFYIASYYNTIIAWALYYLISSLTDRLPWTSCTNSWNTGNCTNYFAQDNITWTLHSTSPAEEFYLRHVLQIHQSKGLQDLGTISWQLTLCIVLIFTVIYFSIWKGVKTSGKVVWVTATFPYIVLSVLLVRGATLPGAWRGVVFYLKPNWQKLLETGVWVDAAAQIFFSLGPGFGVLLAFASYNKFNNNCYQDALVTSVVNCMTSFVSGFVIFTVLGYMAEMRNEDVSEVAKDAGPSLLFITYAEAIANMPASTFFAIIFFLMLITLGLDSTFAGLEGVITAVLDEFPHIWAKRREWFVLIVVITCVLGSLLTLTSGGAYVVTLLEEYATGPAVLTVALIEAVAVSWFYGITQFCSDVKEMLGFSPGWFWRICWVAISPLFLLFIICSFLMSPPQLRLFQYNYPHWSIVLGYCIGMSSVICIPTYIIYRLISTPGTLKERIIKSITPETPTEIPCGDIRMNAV
Chain of vesicular monoamine transporter 2 (VMAT2) (Q05940 whole entry, species assumed): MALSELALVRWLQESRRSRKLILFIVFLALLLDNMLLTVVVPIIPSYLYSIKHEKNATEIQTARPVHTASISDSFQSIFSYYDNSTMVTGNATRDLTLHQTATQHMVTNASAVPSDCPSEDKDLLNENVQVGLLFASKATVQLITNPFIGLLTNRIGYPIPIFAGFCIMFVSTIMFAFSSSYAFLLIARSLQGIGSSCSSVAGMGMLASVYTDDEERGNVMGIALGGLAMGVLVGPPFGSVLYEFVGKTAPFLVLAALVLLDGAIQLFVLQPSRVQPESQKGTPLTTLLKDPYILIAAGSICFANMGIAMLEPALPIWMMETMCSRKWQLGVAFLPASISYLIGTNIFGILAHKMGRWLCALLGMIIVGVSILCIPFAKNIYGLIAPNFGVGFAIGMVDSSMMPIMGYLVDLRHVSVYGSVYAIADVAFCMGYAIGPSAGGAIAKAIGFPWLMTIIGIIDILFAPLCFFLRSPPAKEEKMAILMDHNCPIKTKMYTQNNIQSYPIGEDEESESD
Chain of serotonin transporter (P31645 whole entry): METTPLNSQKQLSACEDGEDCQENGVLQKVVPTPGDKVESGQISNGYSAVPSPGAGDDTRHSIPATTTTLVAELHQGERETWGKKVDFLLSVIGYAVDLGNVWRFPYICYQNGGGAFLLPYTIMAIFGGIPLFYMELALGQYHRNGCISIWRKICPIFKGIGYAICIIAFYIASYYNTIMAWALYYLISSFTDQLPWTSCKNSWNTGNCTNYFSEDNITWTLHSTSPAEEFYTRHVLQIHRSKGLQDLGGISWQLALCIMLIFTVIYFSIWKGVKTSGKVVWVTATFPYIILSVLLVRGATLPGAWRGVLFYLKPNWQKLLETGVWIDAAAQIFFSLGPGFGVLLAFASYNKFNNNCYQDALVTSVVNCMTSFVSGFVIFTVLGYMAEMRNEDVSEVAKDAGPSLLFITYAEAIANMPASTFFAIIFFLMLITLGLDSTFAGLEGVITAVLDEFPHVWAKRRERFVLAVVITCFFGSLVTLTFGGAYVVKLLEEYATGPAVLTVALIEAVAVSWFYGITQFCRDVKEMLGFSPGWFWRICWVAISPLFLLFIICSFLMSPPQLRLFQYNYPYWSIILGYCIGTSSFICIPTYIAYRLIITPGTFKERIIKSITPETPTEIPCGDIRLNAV
Chain of norepinephrine (NE) transporter (P23975 whole entry): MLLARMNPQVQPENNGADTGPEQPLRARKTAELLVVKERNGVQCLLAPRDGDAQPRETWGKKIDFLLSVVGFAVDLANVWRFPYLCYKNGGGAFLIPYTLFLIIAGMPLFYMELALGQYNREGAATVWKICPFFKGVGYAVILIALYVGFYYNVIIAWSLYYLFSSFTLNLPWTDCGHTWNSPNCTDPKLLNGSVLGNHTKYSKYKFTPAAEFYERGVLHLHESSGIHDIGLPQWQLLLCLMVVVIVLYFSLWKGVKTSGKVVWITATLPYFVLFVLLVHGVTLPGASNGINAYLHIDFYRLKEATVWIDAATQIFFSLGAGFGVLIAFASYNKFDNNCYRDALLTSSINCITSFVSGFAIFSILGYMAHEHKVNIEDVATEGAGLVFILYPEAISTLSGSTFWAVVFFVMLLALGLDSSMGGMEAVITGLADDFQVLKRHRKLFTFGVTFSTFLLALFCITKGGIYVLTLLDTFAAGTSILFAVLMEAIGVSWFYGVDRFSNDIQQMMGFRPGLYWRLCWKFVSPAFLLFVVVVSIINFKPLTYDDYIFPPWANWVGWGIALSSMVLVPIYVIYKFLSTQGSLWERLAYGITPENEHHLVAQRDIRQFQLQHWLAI
Chain of dopamine (DA) transporter (Q01959 whole entry): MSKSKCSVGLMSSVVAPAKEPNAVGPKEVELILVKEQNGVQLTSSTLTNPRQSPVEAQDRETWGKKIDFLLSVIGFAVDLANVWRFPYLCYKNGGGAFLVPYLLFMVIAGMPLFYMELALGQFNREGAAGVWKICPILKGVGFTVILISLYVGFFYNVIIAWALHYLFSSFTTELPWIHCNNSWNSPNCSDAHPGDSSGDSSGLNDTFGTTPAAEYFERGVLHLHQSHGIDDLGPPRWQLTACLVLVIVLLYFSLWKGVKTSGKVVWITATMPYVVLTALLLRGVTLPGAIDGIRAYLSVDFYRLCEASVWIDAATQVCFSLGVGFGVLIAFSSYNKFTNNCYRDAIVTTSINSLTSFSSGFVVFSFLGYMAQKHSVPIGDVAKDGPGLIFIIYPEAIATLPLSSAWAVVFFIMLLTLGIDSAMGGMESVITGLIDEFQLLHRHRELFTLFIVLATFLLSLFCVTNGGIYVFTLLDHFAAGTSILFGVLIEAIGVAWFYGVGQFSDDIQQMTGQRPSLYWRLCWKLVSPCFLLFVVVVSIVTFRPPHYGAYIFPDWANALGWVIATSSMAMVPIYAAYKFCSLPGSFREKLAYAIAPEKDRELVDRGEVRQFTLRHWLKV

SMILES: CNC(C)C(=O)c1ccc2c(c1)OCO2 (stereo not drawn) [methylone, 3,4-methylenedioxy-N-methylcathinone]
- Number of cases (N = 28), Magnitude of Improvement [1]: 0
- adverse effects or after-effects ([1]; Cohort 1, 4 healthy subjects, single session, total dose 790 or 870 mg oral): no adverse effects or after-effects were observed or reported
- cases in which methylone dosing was well tolerated and no safety events were reported ([1]; Cohort 2, 25 of 28 cases): 89.3%
- patients with initial improvement with the first methylone session ([1]; Cohort 2, 25 of 28 patients): ~90%
- patients achieving CGI-I 1 or 2 ([1]; Cohort 2 MDD subset, 8/8 patients): 100%
- patients achieving CGI-I 1 or 2 ([1]; Cohort 2 PTSD subset, 16/20 patients): 80%
- patients achieving CGI-I 1 or 2 (much improved or very much improved) ([1]; Cohort 2 overall, N=28, oral methylone, single or multiple sessions, compared to baseline CGI-S): 86%
- cases reporting a durable effect ([1]; MDD subset of Cohort 2, 6 narratives with durability information): 5
- cases with durable effect of 6 months or greater ([1]; PTSD subset of Cohort 2): 12
- case narratives reporting a durable effect ([1]; PTSD subset of Cohort 2, 16 narratives with durability information): 15
- patients with magnitude of improvement CGI 1 or 2 ([1]; PTSD subset, of 5 patients with concomitant SSRIs or other antidepressant classes): 4
- Number of cases (N = 28), Magnitude of Improvement ([1]; highest observed CGI-I = 1 (very much improved), Cohort 2): 11*
- Number of cases (N = 28), Magnitude of Improvement ([1]; highest observed CGI-I = 2 (much improved), Cohort 2): 13
- Number of cases (N = 28), Magnitude of Improvement ([1]; highest observed CGI-I = 3 (minimally improved), Cohort 2): 4
- Number of cases (N = 28), Magnitude of Improvement ([1]; highest observed CGI-I = 4 (no change), Cohort 2): 0
- Number of cases (N = 28), Magnitude of Improvement ([1]; highest observed CGI-I = 5 (minimally worse), Cohort 2): 0
- Number of cases (N = 28), Magnitude of Improvement ([1]; highest observed CGI-I = 6 (much worse), Cohort 2): 0
- patients achieving CGI-I much improved or very much improved ([2]; 21 PTSD patients): 81%
- tolerability ([2]; 21 PTSD patients): generally well tolerated
- patients reporting a durable effect ([2]; durability captured for 17 of 21 patients): 16
- total adverse events noted ([2]; in three of the 21 patients, none severe): four
- patients with durable effect >six months ([2]; in vivo): 11
- patients achieving a CGI-I of 1 or 2 ([2]; of 21 PTSD patients): 17
- patients achieving CGI-I scores of 1 or 2 ([2]; patients who received only a single dose of methylone (n=9)): 89%
- patients with initial improvement after the initial session ([2]; patients with multiple methylone dosing sessions (n=12)): 83%
- binding at the DA transporter [3]: confirmed methylone binding
- binding at the NE transporter [4]: confirmed methylone binding
- enhancement of fear extinction recall compared to saline controls (reduced freezing on day 3) ([5]; methylone 30 mg/kg IP 30 min prior to extinction training): ~60%
- locomotion during the testing session ([5]; methylone 30 mg/kg IP, day 3): no differences between groups
- agonist or antagonist activity (criteria: >30% activity, >50% inhibition) [6]: did not meet criteria for agonist or antagonist activity
- type of interaction at the SERT [7]: competitive
- Bmax of [3H]5HT uptake ([7]; in the presence of methylone): no decrease
- Kd of [3H]5HT uptake ([7]; in the presence of methylone): right shifted
- affinity for VMAT2 lower than that of MDMA [8]: about 13 ×
- affinity for the serotonin transporter lower by comparison to MDMA [9]: 3 ×
- half-life shorter than MDMA ([10]; rat, in vivo): > 50%
- half-life [10, 12]: 1 to 2 h
- time of peak brain and serum concentration [10, 12]: 15 to 30 min
- side effects [11]: no detectable side effects
